From patent US20240182525A1, “NOVEL BICYCLIC COMPOUND, OPTICAL ISOMER THEREOF OR PHARMACEUTICALLY ACCEPTABLE SALT THEREOF, USE THEREOF, AND PREPARATION METHOD THEREFOR” (KOREARESEARCH INSTITUTE OF BIOSCIENCE AND BIOTECHNOLOGY, priority 2021, published 2024)

Legend:
[1] = Cytotoxicity assay, U373MG; type: cell-based; conditions: human, U373MG cells (glioblastoma), maximum concentration 100 μM
Experimental: (§1) To measure the cytotoxicity of the compound represented by Chemical Formula 1 (Chemical Formula 1-1), toxicity was measured in mouse preadipocyte 3T3-L1 cell line, human malignant melanoma A375 cell line, mouse malignant melanoma B16F10 cell line, human oral cancer MDA-MB-435 cell line, mouse breast cancer 4T1 cell line, human breast cancer MCF7 cell line, human brain cancer U87MG cell line, human glioblastoma U373MG cell line, human cervical cancer HeLa cell line, mouse embryonic fibroblast (MEF) cell line, human embryonic kidney HEK293T cell line (Korea Cell Line Bank). First, 1×10^4 cells were divided into 200 μl each in a 96-well plate using Dulbecco's Modified Eagle's Medium (DMEM) supplemented with 10% fetal bovine serum (FBS), […] streptomycin, and 50 U/ml penicillin, while maintaining various cells at 37r in an atmosphere of 5% CO2. The cells were treated with the compound of Chemical Formula 1-1 of the present invention at a maximum concentration of 100 μM and cultured for 48 hours under the same culture conditions. After the incubation, the culture media were removed and the cytotoxicity test results were confirmed (Table 2 and FIG. 3 below).

[2] = tested on: mouse 3T3-L1 cell line; assay: Adipogenesis inhibitory effect test, Oil Red O staining; type: cell-based
Experimental: The adipogenesis inhibitory activity of Chemical Formula 1 according to the present invention was measured through Oil Red O staining in mouse 3T3-L1 cell line. First, 3T3-L1 cells were placed in a 48-well plate (1×10^4 cell/well) and cultured for 24 hours in a 37° C. CO2 incubator. The next day, the cells were replaced with the normal culture media (Undifferentiated media; UND) and the differentiation induction medium (Differentiation media; DM), respectively, followed by treatment with 2.5-10 μM of Chemical Formula 1-1 for 48 hours. Then, the cells were replaced with the normal culture media (Maintainment media; MM), and cultured with 2.5-10 μM of Chemical Formula 1-1 for 72 hours, and then treated with Oil Red O.
In addition, the same experiment was conducted with the compound of Chemical Formula 1-1 at a fixed concentration of 7.5 μM and Wnt3a-conditional media at 10-2.5%.

[3] = Cytotoxicity assay, B16F10; type: cell-based; conditions: mouse, B16F10 cells (malignant melanoma); B16F10, 48 hours, maximum concentration 100 μM
Experimental: as §1

[4] = Cytotoxicity assay, HeLa; type: cell-based; conditions: human, HeLa cells (cervical cancer), maximum concentration 100 μM
Experimental: as §1

[5] = tested on: C57BL/C6 mice; assay: Anti-obesity effect in high calorie diet mouse model; type: in vivo; conditions: high calorie diet + 15 mg/kg, FIG. 12
Experimental: C57BL/C6 mice were used to test the anti-obesity effect in a mouse model with respect to the compound of Chemical Formula 1 of the present invention, which is an adipogenesis-inhibiting compound. For effective evaluation of the anti-obesity model, the control group (general diet), the control group (high calorie diet), and an anti-obesity control group (high calorie diet+Chemical Formula 1 (15 mg/kg)) were compared and evaluated (FIG. 12). The mice injected with the high-calorie diet rather than the general diet gained 131% in body weight, but the mice treated with the high-calorie diet and Chemical Formula 1 (15 mg/kg) together […] 115% in body weight.

[6] = Cytotoxicity assay, MDA-MB-435; type: cell-based; conditions: human, MDA-MB-435 cells (printed as oral cancer); MDA-MB-435, 48 hours, maximum concentration 100 μM
Experimental: as §1

[7] = Cytotoxicity assay, 4T1; type: cell-based; conditions: mouse, 4T1 cells (breast cancer); 4T1, 48 hours, maximum concentration 100 μM
Experimental: as §1

**Q.** With `CC(C)CC1NC(=O)C2CCCN2C(=O)C(C(O)C(C)C)NC(=O)CNC(=O)C(C(C)O)NC(=O)C2NC(=O)C(NC(=O)/C=C/c3ccccc3C(O)C(C)O)C(C)OC(=O)C(CC(N)=O)NC(=O)C(NC(=O)C(O)NC1=O)C(O)c1ccc(O)c(c1)Oc1ccc2cc1` (stereo not shown) [Chemical Formula 1-1] as the molecule, how does the IC50 at 48 h [1] read?
**A.** 89.5 µM

**Q.** What about the adipogenesis inhibitory activity ([2]; 2.5-10 μM, Oil Red O, FIG. 8) of the same molecule?
**A.** exhibited the adipogenesis inhibitory activity in a concentration-dependent manner

**Q.** And the adipogenesis inhibitory activity ([2]; fixed 7.5 μM with Wnt3a-conditional media at 10-2.5%, FIG. 9)?
**A.** excellent

**Q.** What about the IC50 at 48 h [3] of the same molecule?
**A.** > 100 µM

**Q.** And the IC50 at 48 h [4]?
**A.** > 100 µM

**Q.** What about the abdominal fat weight [5] of the same molecule?
**A.** significant decrease

**Q.** And the liver weight [5]?
**A.** significant decrease

**Q.** And the body weight ([5]; high-calorie diet alone 131%)?
**A.** 115%

**Q.** And the IC50 at 48 h [6]?
**A.** > 100 µM

**Q.** And the IC50 at 48 h [7]?
**A.** > 100 µM
